Key:
COLO 205 = assay: SRB growth assay, 6 days exposure, colon cancer; format: cell-based; details: COLO 205, 6 days
Protocol: (§1) Arsenic trioxide (1 mg/ml, 10 mg/ampoule, manufactured by Taylor Pharmaceuticals, Decatur, Ill.) was tested at five concentrations each at 10-fold dilutions, i.e., 10^−5, 10^−6, 10^−7, 10^−8 and 10^−9 μg/ml.
(§2) The in vitro tests were performed by incubating the test cells in the presence of the indicated concentration of arsenic trioxide under standard culture conditions for a designated period of time, which is followed by a sulforhodamine B (SRB) protein assay to estimate cell viability or growth. The cell lines are organized into subpanels according to the origin of the cell lines, e.g., leukemia, breast cancer, etc. A description of the cell lines and method of testing is described in Monk et al. (1997, Anticancer Drug Des. 12:533-41) and Weinstein et al., (1997, Science 275:343-9), which are incorporated herein in their entirety.
(§3) The measurement of an effect is expressed in Percentage Growth (PG). The measured effect of the compound on a cell line is calculated according to one or the other of the following two expressions: If (Mean ODtest−Mean ODzero)≧0. then PG=100×(Mean ODtest−Mean ODzero)/(Mean ODctrl−Mean ODzero) If (Mean ODtest−Mean ODzero)<0. then PG=100×(Mean ODtest−Mean ODzero)/(Mean ODzero where: • Mean ODzero=the average of optical density measurements of SRB-derived color just before exposure of cells to the test compounds; • Mean ODtest=the average of optical density measurements of SRB-derived color after exposure of cells to the test compound for a designated period of time; and • Mean ODctrl=the average of optical density measurements of SRB-derived color after with no exposure of cells to the test compound for a designated period of time
(§4) The first two columns describe the subpanel (e.g., leukemia) and cell line (e.g., CCRF-CEM) involved. The next two columns list the Mean ODzero and Mean ODctrl; the next five columns list the Mean ODtest for each of five different concentrations. Each concentration is expressed as the log10 (molar or μg/ml). The next five columns list the calculated PGs for each concentration. The response parameters GI50, TGI and LC50 are interpolated values representing the concentrations at which the PG is +50, 0, and −50, respectively. Sometimes these response parameters cannot be obtained by interpolation. If, for instance, all of the PGs in a given row exceed +50, then none of the three parameters can be obtained by interpolation. In such a case, the value given for each response parameter is the highest concentration tested and is preceded by a “>” sign. This practice is extended similarly to the other possible situations where a response parameter cannot be obtained by interpolation.
(§5) In the first set, the cells from 56 different cancer cell lines were exposed to five concentrations of arsenic trioxide continuously for two days prior to performing the SRB assay. In the second set, the cells from 50 different cell lines (a subset of the first 56 cell lines, plus the renal cancer cell line 786-0) were exposed continuously for six days prior to the SRB assay.

HCT-116 = assay: SRB growth assay, 6 days exposure, colon cancer; format: cell-based; details: HCT-116, 6 days
Protocol: as §1, §2, §3, §4, §5

SW-620 = assay: SRB growth assay, 6 days exposure, colon cancer; format: cell-based; details: SW-620, 6 days
Protocol: as §1, §2, §3, §4, §5

50 different cell lines = assay: NCI cancer cell line panel, SRB assay, second set, 6 days exposure (whole panel, mean graph); format: cell-based
Protocol: as §1, §2
The measurement of an effect is expressed in Percentage Growth (PG). […]
The first two columns describe the subpanel (e.g., leukemia) and cell line (e.g., CCRF-CEM) involved. […] Each concentration is expressed as the log10 (molar or μg/ml). The next five columns list the calculated PGs for each concentration. […]

SNB-19 = assay: SRB growth assay, 2 days exposure, CNS cancer; format: cell-based
Protocol: as §1, §2, §3, §4, §5

SF-539 = assay: SRB growth assay, 2 days exposure, CNS cancer; format: cell-based
Protocol: as §1, §2, §3, §4, §5

SF-268 = assay: SRB growth assay, 2 days exposure, CNS cancer; format: cell-based
Protocol: as §1, §2, §3, §4, §5

SNB-75 = assay: SRB growth assay, 2 days exposure, CNS cancer; format: cell-based
Protocol: as §1, §2, §3, §4, §5

[1] = system: NB4 cells, an APL cell line; details: in vitro; cited from earlier work
[2] = read-out: LC50 (the source's name)

In the case of arsenic trioxide, the TGI (COLO 205) is reported as over 1.26E−05, the “Mean Optical Densities” value (COLO 205; Log 10 Concentration −4.9) is reported as 0.024 and the “Percent Growth” value (COLO 205; Log 10 Concentration −4.9) is reported as 0%. For the same substance, the “Mean Optical Densities” value (COLO 205; Log 10 Concentration −5.9) was 1.404, the “Percent Growth” value (COLO 205; Log 10 Concentration −5.9) was 59% and the “Mean Optical Densities” value (COLO 205; Log 10 Concentration −6.9) was 2.283. The “Percent Growth” value (COLO 205; Log 10 Concentration −6.9) was 97%, the “Mean Optical Densities” value (COLO 205; Log 10 Concentration −7.9) was 2.026 and the “Percent Growth” value (COLO 205; Log 10 Concentration −7.9) was 86%. The “Mean Optical Densities” value (COLO 205; Log 10 Concentration −8.9) was 2.308, the “Percent Growth” value (COLO 205; Log 10 Concentration −8.9) was 98% and the CC50 (COLO 205; [2]) was over 12.6 µM. For the same substance, the TGI (HCT-116) was over 1.26E−05, the “Mean Optical Densities” value (HCT-116; Log 10 Concentration −4.9) was 1.931 and the “Percent Growth” value (HCT-116; Log 10 Concentration −4.9) was 56%. For the same substance, the “Mean Optical Densities” value (HCT-116; Log 10 Concentration −5.9) was 3.284, the “Percent Growth” value (HCT-116; Log 10 Concentration −5.9) was 96% and the “Mean Optical Densities” value (HCT-116; Log 10 Concentration −6.9) was 3.381. For the same substance, the “Percent Growth” value (HCT-116; Log 10 Concentration −6.9) was 99%, the “Mean Optical Densities” value (HCT-116; Log 10 Concentration −7.9) was 3.289 and the “Percent Growth” value (HCT-116; Log 10 Concentration −7.9) was 96%. The “Mean Optical Densities” value (HCT-116; Log 10 Concentration −8.9) was 3.395, the “Percent Growth” value (HCT-116; Log 10 Concentration −8.9) was 99% and the CC50 (HCT-116; [2]) was over 12.6 µM. For the same substance, the TGI (SW-620) was 3.43E−06, the “Mean Optical Densities” value (SW-620; Log 10 Concentration −4.9) was 0.007 and the “Percent Growth” value (SW-620; Log 10 Concentration −4.9) was −72%. For the same substance, the “Mean Optical Densities” value (SW-620; Log 10 Concentration −5.9) was 1.475, the “Percent Growth” value (SW-620; Log 10 Concentration −5.9) was 55% and the “Mean Optical Densities” value (SW-620; Log 10 Concentration −6.9) was 2.337. For the same substance, the “Percent Growth” value (SW-620; Log 10 Concentration −6.9) was 88%, the “Mean Optical Densities” value (SW-620; Log 10 Concentration −7.9) was 2.308 and the “Percent Growth” value (SW-620; Log 10 Concentration −7.9) was 87%. For the same substance, the “Mean Optical Densities” value (SW-620; Log 10 Concentration −8.9) was 2.613, the “Percent Growth” value (SW-620; Log 10 Concentration −8.9) was 99% and the reducing cell growth (50 different cell lines; second set of tests, all cell lines tested) was “effective in reducing cell growth against all the cell lines tested”. For the same substance, the “sensitivity at the various principal response parameters” value (50 different cell lines; several melanoma cell lines) was “especially sensitive”, the TGI (SNB-19) was over 0.0126 ng/mL and the “Percent Growth” value (SNB-19; log10 conc −4.9) was 36%. For the same substance, the “Percent Growth” value (SNB-19; log10 conc −5.9) was 97%, the “Percent Growth” value (SNB-19; log10 conc −6.9) was 98% and the “Percent Growth” value (SNB-19; log10 conc −7.9) was 97%. The “Percent Growth” value (SNB-19; log10 conc −8.9) was 93%, the TGI (SF-539) was 0.00885 ng/mL and the “Percent Growth” value (SF-539; log10 conc −4.9) was −17%. The “Percent Growth” value (SF-539; log10 conc −5.9) was 92%, the “Percent Growth” value (SF-539; log10 conc −6.9) was 113% and the “Percent Growth” value (SF-539; log10 conc −7.9) was 117%. For the same substance, the “Percent Growth” value (SF-539; log10 conc −8.9) was 109%, the TGI (SF-268) was over 0.0126 ng/mL and the “Percent Growth” value (SF-268; log10 conc −4.9) was 23%. For the same substance, the “Percent Growth” value (SF-268; log10 conc −5.9) was 100%, the “Percent Growth” value (SF-268; log10 conc −6.9) was 108% and the “Percent Growth” value (SF-268; log10 conc −7.9) was 94%. The “Percent Growth” value (SF-268; log10 conc −8.9) was 110%, the TGI (SNB-75) was 0.00698 ng/mL and the “Percent Growth” value (SNB-75; log10 conc −4.9) was −17%. The “Percent Growth” value (SNB-75; log10 conc −5.9) was 37%, the “Percent Growth” value (SNB-75; log10 conc −6.9) was 115% and the “Percent Growth” value (SNB-75; log10 conc −7.9) was 100%. For the same substance, the “Percent Growth” value (SNB-75; log10 conc −8.9) was 77% and the “apoptosis (programmed cell death)” value [1] was “induced apoptosis”.

Source: US6875451B2, “Compositions and methods for the treatment of primary and metastatic neoplastic diseases using arsenic compounds” (PolaRx Biopharmaceuticals Inc., priority 1997, dated 2005)
